Laboratory results from patent US20250099465A1, “REMIBRUTINIB FOR USE IN THE TREATMENT OF HIDRADENITIS SUPPURATIVA” (NOVARTIS AG, priority 2022, published 2025).
“And” between values parts separate entries of the source, which are not always exact repeats. Identical values can stand only once. Like-named read-outs stand apart in the source and are kept apart here.

What was measured:
[1] = human, in vivo; cited from earlier work
[2] = 52-week open label extension study in CSU subjects (interim analyses); assay type: in vivo;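 further: Open-label extension assessing long-term safety and tolerability in CSU patients previously enrolled in the Phase 2b trial, dosed at 100 mg b.i.d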
Procedure: In a 52-week open label extension study to evaluate the long-term safety and tolerability of LOU064 in eligible subjects with CSU who participated in the Phase 2b study the dose used was 100 mg b.i.d.
Table 4 presents the safety summary observed in the Phase 2b study up to the cut-off date for the interim analysis.

[3] = Co-administration of LOU064 with oral contraceptives; conditions: in vivo
Text: Therefore, in a preferred embodiment, LOU064 is co-administered with oral contraceptives.

[4] = Phase 2b randomized, double-blind, placebo-controlled core study in CSU patients; assay type: in vivo
Procedure: In a Phase 2b, randomized, double-blind, placebo-controlled trial evaluating the efficacy and safety of LOU064 over 12 weeks in patients inadequately controlled by […], with at least moderately active chronic spontaneous urticaria (CSU), patients received LOU064 10 mg q.d. (once daily), 35 mg q.d., 100 mg q.d., 10 mg b.i.d. (twice daily), 25 mg b.i.d., 100 mg b.i.d., or placebo (1:1:1:1:1:1:1 ratio).
(Table 5) In the long-term exposure of the ES (median 35.14 wks, N=183), the proportion of patients with at least one adverse effect (AE) on remibrutinib treatment (57.4% [n=105]) was similar to the CS (presented through for any remibrutinib dose) (58.1% [n=155]; median 12.14 wks, N=267). In the ES, there were 4 serious adverse effects (SAEs), 6 AEs leading to treatment discontinuation and no deaths. The incidences of AEs by […] (SOC) reported in the ES and CS were similar: infections and infestations (23.0% and 24.0%), followed by skin/subcutaneous tissue disorder (17.5% and 16.9%) (Table 5). […] Incidence of AESI in the ES such as infections (23%), bleeding (4.4%) and cytopenias (0.5%) were in line with the CS. Newly occurring notable transaminase increases were single in both ES (isolated ALT>3×ULN, normalized within 4 weeks, in 1 patient discontinued early for personal reasons) and CS (ALT>5×ULN in 1 patient, normalised on treatment).

[5] = molecular target: T1, BTK (Homo sapiens, UniProt Q06187); test: Phase I clinical study (Kaul et al. 2021): PK, BTK occupancy in blood, short-term safety; assay type: in vivo
T1 construct: simulate BTK occupancy in human spleen/tissues; from tissue; host or cells: human spleen / lymph node / peripheral tissue B cells (simulated, not measured)
T1 sequence (Q06187 whole entry): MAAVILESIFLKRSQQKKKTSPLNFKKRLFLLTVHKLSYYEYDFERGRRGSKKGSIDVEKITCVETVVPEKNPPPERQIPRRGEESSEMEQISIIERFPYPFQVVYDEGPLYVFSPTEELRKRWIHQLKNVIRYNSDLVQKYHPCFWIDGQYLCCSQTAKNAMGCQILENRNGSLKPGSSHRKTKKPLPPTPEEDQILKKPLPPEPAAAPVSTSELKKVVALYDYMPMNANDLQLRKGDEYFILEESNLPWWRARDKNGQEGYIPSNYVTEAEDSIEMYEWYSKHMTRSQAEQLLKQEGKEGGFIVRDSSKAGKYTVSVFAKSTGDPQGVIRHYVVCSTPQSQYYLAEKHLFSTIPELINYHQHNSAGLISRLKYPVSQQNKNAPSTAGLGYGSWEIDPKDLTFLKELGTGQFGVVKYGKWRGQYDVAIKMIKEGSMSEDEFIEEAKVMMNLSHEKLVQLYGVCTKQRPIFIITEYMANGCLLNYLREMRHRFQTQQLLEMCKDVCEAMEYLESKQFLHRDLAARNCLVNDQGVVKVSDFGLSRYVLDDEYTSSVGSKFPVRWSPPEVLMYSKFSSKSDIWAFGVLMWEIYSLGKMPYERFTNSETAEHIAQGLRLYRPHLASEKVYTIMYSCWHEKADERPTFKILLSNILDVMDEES
Text: BTK occupancy in blood is not an informative biomarker for the purpose of dose selection due to LOU064 pharmacological properties (irreversible binding). […] Occupancy in tissue may be more representative of the expected efficacy of LOU064.
Pharmacokinetic data from a Phase I clinical study reported by Kaul et al. (2021) were used in the current analysis, including 102 patients.
A population PK model has been developed to describe the interim PK from a Phase I clinical study reported by Kaul et al. (2021). […] Overall the resulting population model described the PK data reasonably well.

[6] = molecular target: T1, BTK; conditions: single or multiple doses 0.5 mg to 600 mg up to 18 days; 100 and 200 mg b.i.d. up to 12 days; cited from earlier work
[7] = cited from earlier work
[8] = higher dose treatment arms; cited from earlier work
[9] = HS patients; cited from earlier work
[10] = tested on: B cells; conditions: case study; cited from earlier work
[11] = tested on: HS explant cultures; conditions: cited from earlier work
[12] = 100 mg B.I.D., N = 100, interim analysis cut off 31 Aug. 2020
[13] = 100 mg b.i.d., N = 100 interim analysis
[14] = ES, CSU patients, 100 mg b.i.d., N = 183, median 35.14 wks, listed as remibrutinib
[15] = Phase 2b core and extension study
[16] = CS, CSU patients, Any dose, N = 267, listed as remibrutinib

## CC#CC(=O)N1CCC[C@H]1c1nc(-c2ccc(C(=O)Nc3ccccn3)cc2)c2c(N)nccn12 [Acalabrutinib]
[1]
  commonly observed adverse reactions: infection, headache, and diarrhea

## C=CC(=O)N(C)CCOc1c(N)ncnc1-c1cc(F)cc(NC(=O)c2ccc(C3CC3)cc2F)c1C [LOU064, N-(3-(6-amino-5-(2-(N-methylacrylamido)ethoxy)pyrimidin-4-yl)-5-fluoro-2-methylphenyl)-4-cyclopropyl-2-fluorobenzamide]
[2]; [12]
  Death: 0 n (%)
  Discontinued study due to an SAE(s): 0 n (%)
  Discontinued study due to any AE(s): 0 n (%)
  Non-fatal SAE: 3 (3.0) n (%)
  Treatment interruption due to AE(s): 5 (5.0) n (%)
  Treatment interruption due to SAE(s): 1 (1.0) n (%)
[2]; 100 mg B.I.D., N = 100, interim analysis cut off 31 Aug. 2020, median exposure 17.86 weeks
  Patients with AE(s): 58 (58) n (%)
[2]; 100 mg b.i.d., 100 subjects, median exposure 17.86 weeks
  safety signal: No safety signal has been observed
[2]; [13]
  SAEs reported (ovarian cyst, chest pain, appendicitis; none related to study drug): Three
  SOC Infections and infestations: 14%
  SOC Skin and subcutaneous tissue disorders: 13%
  adverse event preferred term: diarrhea: 4%
  adverse event preferred term: dizziness: 3%
  adverse event preferred term: gastroenteritis: 3%
  adverse event preferred term: headache: 6%
  bleeding events or events under SOC Blood and lymphatic system disorders: no bleeding events
  subjects who experienced at least one treatment emergent AE: 58%
[2]; 100 mg b.i.d., up to 52 weeks
  dose-limiting liver enzyme elevations and other off-target-effects: does not induce any dose-limiting liver enzyme elevations and other off-target-effects
[2]; ES, 100 mg b.i.d., N=183
  Incidence of AESI: bleeding: 4.4%
  Incidence of AESI: cytopenias: 0.5%
  Incidence of AESI: infections: 23%
  Newly occurring notable transaminase increases: isolated ALT>3×ULN, normalized within 4 weeks: 1 patient
[2]; ES, 100 mg b.i.d., N=183, median 35.14 wks
  deaths: no deaths
[2]; ES, CSU patients, 100 mg b.i.d., N = 183, median 35.14 wks
  AEs by primary system organ class: Skin and subcutaneous tissue disorders: 32 n
[2]; [14]
  AEs by PT: Headache: 6.6%
  AEs by primary system organ class: Infections and infestations: 23.0%
  AEs by primary system organ class: Skin and subcutaneous tissue disorders: 17.5%
  Discontinued study treatment due to AE(s): 6 n
  Patients with SAE(s): 4 n
[2]; [15]
  ECG findings or QT of >500 ms: no significant ECG findings or QT of >500 ms noted in any patient
  analysis of laboratory parameters: did not reveal significant safety concerns
  vital signs: no clinically meaningful changes
[2]; whole dose range, 100 mg bid up to 52 wks, patients with CSU
  safety profile over longer-term exposure: no new safety signals
[3]
  impact on exposure and efficacy of co-administered oral contraceptives (ethinylestradiol or levonorgestrel): without a major impact on their exposure and efficacy
[4]; 25 mg b.i.d. regimen, 12 weeks, CSU inadequately controlled by antihistamines
  efficacy in CSU compared to the other doses: particularly effective
[4]; [16]
  AEs by PT: Headache: 9.7%
  AEs by primary system organ class: Infections and infestations: 24.0%
  AEs by primary system organ class: Skin and subcutaneous tissue disorders: 16.9%
[4]; CS, any remibrutinib dose
  Newly occurring notable transaminase increases: ALT>5×ULN, normalised on treatment: 1 patient
[5]; doses lower than 50 mg, no difference at higher doses
  change in clearance after repeated dosing: lower clearance at steady state at Day 12 when compared to Day 1
[5]; low doses
  BTK occupancy in blood: reaches full occupancy even at low doses
[6]
  Short-term safety: has been shown

## C=CC(=O)N1CCC(CNc2ncnc(N)c2-c2ccc(Oc3ccccc3)cc2)CC1 [evobrutinib]
[7]; 75 mg b.i.d., Phase II clinical studies
  dose-limiting side effects: dose-limiting liver enzyme elevations

## C[C@H]1CN(C2COC2)CCN1c1ccc(Nc2cc(-c3ccnc(N4CCn5c(cc6c5CC(C)(C)C6)C4=O)c3CO)cn(C)c2=O)nc1 [fenebrutinib]
[8]
  subjects with transient grade 3 elevations of ALT and/or AST: 8.3% and 6.3%

## C=CC(=O)N1CCC[C@@H](n2c(=O)n(-c3ccc(Oc4ccccc4)cc3)c3c(N)nccc32)C1 [tolebrutinib]
[7]; human, in vivo
  dose-limiting side effects: dose-limiting diarrhea

## adalimumab
[9]
  patients with suboptimal therapeutic responses: ~40%

## rituximab: B-cell depletor, CD20 antagonist
[10]
  outcome of HS treatment using B-cell depletion: successful treatment of HS
[11]
  effect in HS explant cultures: anti-inflammatory effects
